Assay results reported in patent US8916557B2, “Substituted 4-Aryl-N-phenyl-1,3,5-triazin-2-amines” (Bayer Intellectual Property GmbH, priority 2011, dated 2014).
pIC50: −log10 of the molar value.

How the values were obtained:
[1] = tested on: NCI-H460, human non-small cell lung carcinoma cells; experiment: Proliferation assay (crystal violet), NCI-H460; type: cell-based; settings: read-out: Inhibition of H460 cell proliferation (activity range)
Protocol: (§1) Cultivated tumour cells (NCI-H460, human non-small cell lung carcinoma cells, ATCC HTB-177; DU 145, hormone-independent human prostate carcinoma cells, ATCC HTB-81; HeLa-MaTu, human cervical carcinoma cells, EPO-GmbH, Berlin; HeLa-MaTu-ADR, multidrug-resistant human cervical carcinoma cells, EPO-GmbH, Berlin; HeLa human cervical tumour cells, ATCC CCL-2; Caco-2 human colorectal carcinoma, ATCC HTB-37; B16F10 mouse melanoma cells, ATCC CRL-6475) were plated at a density of 5000 cells/well (DU145, HeLa-MaTu-ADR), 3000 cells/well (NCI-H460, HeLa-MaTu, HeLa), 1500 cells/well (Caco-2), or 1000 cells/well (B16F10) in a 96-well multititer plate in 200 μL of their respective growth medium supplemented 10% fetal calf serum. After 24 hours, the cells of one plate (zero-point plate) were stained with crystal violet (see below), while the medium of the other plates was replaced by fresh culture medium (200 μl), to which the test substances were added in various concentrations (0 μM, as well as in the range of 0.001-10 μM; the final concentration of the solvent dimethyl sulfoxide was 0.5%). The cells were incubated for 4 days in the presence of test substances. Cell proliferation was determined by staining the cells with crystal violet: the cells were fixed by adding 20 μl/measuring point of an 11% glutaric aldehyde solution for 15 minutes at room temperature. After three washing cycles of the fixed cells with water, the plates were dried at room temperature. The cells were stained by adding 100 μl/measuring point of a 0.1% crystal violet solution (pH 3.0). After three washing cycles of the stained cells with water, the plates were dried at room temperature. The dye was dissolved by adding 100 μl/measuring point of a 10% acetic acid solution. The extinction was determined by photometry at a wavelength of 595 nm. The change of cell number, in percent, was calculated by normalization of the measured values to the extinction values of the zero-point plate (=0%) and the extinction of the untreated (0 μm) cells (=100%). The IC50 values were determined by means of a 4 parameter fit.

[2] = tested on: DU 145, hormone-independent human prostate carcinoma cells; experiment: Proliferation assay (crystal violet), DU 145; type: cell-based; settings: DU145 cells, read-out: Inhibition of DU145 cell proliferation
[3] = tested on: B16F10 mouse melanoma cells; experiment: Proliferation assay (crystal violet), B16F10; type: cell-based; settings: B16-F10, read-out: Inhibition of B16F10 cell proliferation
Protocol: as §1

[4] = tested on: HeLa human cervical tumour cells; experiment: Proliferation assay (crystal violet), HeLa; type: cell-based; settings: read-out: Inhibition of HeLa cell proliferation
CDK9/CycT1 = target: T1, CDK9/CycT1 (Homo sapiens, UniProt P50750); experiment: CDK9/CycT1 kinase assay (TR-FRET); type: biochemical; settings: Method 1, 10 μM ATP
T1 construct: Recombinant full-length His-tagged human CDK9 and CycT1; His; purchased Invitrogen PV4131; host or cells: insect cells
Method in brief: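 Full-length His-tagged human CDK9/CycT1 (insect-cell expressed), 15 min compound pre-incubation, then 25 min at 22 °C with 10 µM ATP (final) and 1 µM biotinylated peptide (final) in Tris pH 8.0/MgCl2 buffer. Phospho-substrate detected by TR-FRET (anti-RB pSer807/pSer811, Eu anti-mouse IgG, streptavidin-XL665); 665/622 nm emission ratio as read-out.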

[5] = tested on: Caco-2 human colorectal carcinoma; experiment: Proliferation assay (crystal violet), Caco-2; type: cell-based; settings: CACO-2 cells, read-out: Inhibition of CACO-2 cell proliferation

T1 sequence (P50750 whole entry): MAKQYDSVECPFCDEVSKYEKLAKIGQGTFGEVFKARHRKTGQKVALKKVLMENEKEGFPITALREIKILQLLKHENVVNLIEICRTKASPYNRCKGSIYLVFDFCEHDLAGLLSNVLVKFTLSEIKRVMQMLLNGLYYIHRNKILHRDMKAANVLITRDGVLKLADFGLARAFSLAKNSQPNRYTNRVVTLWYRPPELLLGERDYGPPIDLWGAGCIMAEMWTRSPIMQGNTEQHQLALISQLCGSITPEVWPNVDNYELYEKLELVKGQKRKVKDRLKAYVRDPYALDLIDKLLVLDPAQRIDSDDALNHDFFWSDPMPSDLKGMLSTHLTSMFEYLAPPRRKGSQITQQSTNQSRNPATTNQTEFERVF
T1 sequence (O60563 whole entry partner): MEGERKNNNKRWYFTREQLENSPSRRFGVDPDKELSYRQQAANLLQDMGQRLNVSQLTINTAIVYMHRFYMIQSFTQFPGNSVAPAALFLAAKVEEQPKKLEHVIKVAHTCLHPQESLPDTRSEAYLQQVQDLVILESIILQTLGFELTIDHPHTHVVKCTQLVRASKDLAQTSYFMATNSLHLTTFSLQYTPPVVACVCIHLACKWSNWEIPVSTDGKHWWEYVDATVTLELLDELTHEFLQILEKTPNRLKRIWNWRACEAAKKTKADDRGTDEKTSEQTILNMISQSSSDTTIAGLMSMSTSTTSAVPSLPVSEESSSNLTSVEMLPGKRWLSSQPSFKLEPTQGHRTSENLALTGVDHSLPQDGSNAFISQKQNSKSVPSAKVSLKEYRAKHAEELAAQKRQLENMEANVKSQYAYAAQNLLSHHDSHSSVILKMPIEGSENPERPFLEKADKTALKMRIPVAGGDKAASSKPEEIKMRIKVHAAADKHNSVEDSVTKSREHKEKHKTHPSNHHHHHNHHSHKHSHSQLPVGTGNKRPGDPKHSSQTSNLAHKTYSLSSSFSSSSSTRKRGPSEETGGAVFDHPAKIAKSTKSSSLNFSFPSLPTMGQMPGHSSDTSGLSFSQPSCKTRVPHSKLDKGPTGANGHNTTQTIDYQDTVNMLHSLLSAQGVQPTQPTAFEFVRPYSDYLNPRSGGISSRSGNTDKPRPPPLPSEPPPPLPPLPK

Row | Compound | pIC50 [1] | pIC50 [2] | pIC50 [3] | pIC50 [4] | pIC50 (CDK9/CycT1) | pIC50 [5]
1 | COc1cc(F)c(F)cc1-c1ncnc(Nc2cccc(CS(C)(=O)=O)c2)n1 [Example 1, 4-(4,5-Difluoro-2-methoxyphenyl)-N-{3-[(methylsulfonyl)methyl]phenyl}-1,3,5-triazin-2-amine] | 6.04 | 6.08 | 6.00 | 6.17 | 7.85 | 
2 | COc1cc(F)ccc1-c1ncnc(Nc2cccc(CS(C)(=O)=O)c2)n1 [Example 3, 4-(4-Fluoro-2-methoxyphenyl)-N-{3-[(methylsulfonyl)methyl]phenyl}-1,3,5-triazin-2-amine] | 5.92 | 5.92 | 5.77 |  | 7.62 | 
3 | CS(=O)(=O)Cc1cccc(Nc2ncnc(-c3ccc(F)cc3OCc3ccccc3)n2)c1 [Example 4, 4-[2-(Benzyloxy)-4-fluorophenyl]-N-{3-[(methylsulfonyl)methyl]phenyl}-1,3,5-triazin-2-amine] | 6.82 |  | 6.89 | 7.00 | 8.52 | 
4 | COc1cc(F)ccc1-c1ncnc(Nc2cccc(CS(=O)(=O)C3CCCCC3)c2)n1 [Example 9, N-{3-[(Cyclohexylsulfonyl)methyl]phenyl}-4-(4-fluoro-2-methoxyphenyl)-1,3,5-triazin-2-amine] | 6.16 | 6.08 | 5.89 | 6.00 | 8.00 | 6.24
5 | COc1cc(F)ccc1-c1ncnc(Nc2cc(F)cc(CS(C)(=O)=O)c2)n1 [Example 10, 4-(4-Fluoro-2-methoxyphenyl)-N-{3-fluoro-5-[(methylsulfonyl)methyl]phenyl}-1,3,5-triazin-2-amine] | 6.66 | 6.66 | 6.57 | 6.96 | 8.22 | 
6 | CS(=O)(=O)Cc1cccc(Nc2ncnc(-c3cc(F)ccc3OCc3cccc(F)c3)n2)c1 [Example 31, 4-{5-Fluoro-2-[(3-fluorobenzyl)oxy]phenyl}-N-{3-[(methylsulfonyl)methyl]phenyl}-1,3,5-triazin-2-amine] | 6.70 | 6.55 | 6.55 | 6.54 | 8.40 | 
7 | COc1cc(F)ccc1-c1ncnc(Nc2ccc(F)c(CS(C)(=O)=O)c2)n1 [Example 33, 4-(4-Fluoro-2-methoxyphenyl)-N-{4-fluoro-3-[(methylsulfonyl)methyl]phenyl}-1,3,5-triazin-2-amine] | 6.47 | 6.48 | 6.34 | 6.47 | 8.22 | 
8 | COc1cc(F)ccc1-c1ncnc(Nc2cccc(CS(=O)(=O)C3CC3)c2)n1 [Example 40, N-{3-[(Cyclopropylsulfonyl)methyl]phenyl}-4-(4-fluoro-2-methoxyphenyl)-1,3,5-triazin-2-amine] | 6.22 | 6.22 | 6.09 | 6.19 | 7.85 | 
9 | CCOc1cc(F)ccc1-c1ncnc(Nc2cccc(CS(C)(=O)=O)c2)n1 [Example 42, 4-(2-Ethoxy-4-fluorophenyl)-N-{3-[(methylsulfonyl)-methyl]phenyl}-1,3,5-triazin-2-amine] | 6.54 | 6.59 | 6.43 | 6.48 | 8.30 | 
10 | CC#CCOc1cc(F)ccc1-c1ncnc(Nc2cccc(CS(C)(=O)=O)c2)n1 [Example 62, 4-[2-(But-2-yn-1-yloxy)-4-fluorophenyl]-N-{3-[(methylsulfonyl)methyl]phenyl}-1,3,5-triazin-2-amine] | 6.80 | 6.77 | 6.62 | 6.96 | 8.52 | 
11 | CS(=O)(=O)Cc1cccc(Nc2ncnc(-c3ccc(F)cc3OCc3ccnc(Cl)c3)n2)c1 [Example 88, 4-{2-[(2-Chloropyridin-4-yl)methoxy]-4-fluorophenyl}-N-{3-[(methylsulfonyl)-methyl]phenyl}-1,3,5-triazin-2-amine] | 6.68 | 6.77 | 6.64 | 6.72 | 8.40 | 
